Common to all, as to format: biochemical
Assay [1] has as its target T1, TG2 (transglutaminase-2, transglutaminase type 2) (Homo sapiens, UniProt P21980, K202S/K205S).
T1 sequence (P21980 1-687 K202S/K205S): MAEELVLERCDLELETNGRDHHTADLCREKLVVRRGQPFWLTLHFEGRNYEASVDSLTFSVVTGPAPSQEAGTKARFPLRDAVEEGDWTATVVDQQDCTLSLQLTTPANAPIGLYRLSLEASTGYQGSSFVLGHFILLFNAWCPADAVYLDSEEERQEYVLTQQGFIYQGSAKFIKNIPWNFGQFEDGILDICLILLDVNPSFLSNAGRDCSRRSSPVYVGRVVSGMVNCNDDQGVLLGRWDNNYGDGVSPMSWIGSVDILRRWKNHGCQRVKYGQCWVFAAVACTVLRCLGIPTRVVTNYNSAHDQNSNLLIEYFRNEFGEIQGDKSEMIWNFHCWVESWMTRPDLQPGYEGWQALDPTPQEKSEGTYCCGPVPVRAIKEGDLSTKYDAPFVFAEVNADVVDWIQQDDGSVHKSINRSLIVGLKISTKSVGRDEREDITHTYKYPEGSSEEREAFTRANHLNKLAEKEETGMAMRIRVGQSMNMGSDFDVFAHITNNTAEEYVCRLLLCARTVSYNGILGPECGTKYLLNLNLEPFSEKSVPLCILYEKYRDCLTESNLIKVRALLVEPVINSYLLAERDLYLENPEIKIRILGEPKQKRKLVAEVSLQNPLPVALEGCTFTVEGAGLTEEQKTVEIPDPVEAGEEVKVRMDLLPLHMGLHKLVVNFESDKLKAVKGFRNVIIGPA

The target in assay [2] is T2, TG2 (transglutaminase-2, transglutaminase type 2) (Homo sapiens, UniProt P21980, R19S).
T2 sequence (P21980 1-687 R19S): T1 sequence (P21980 1-687 K202S/K205S) with R19S, S202K, S205K

For assay [3], the target named is T3, TG2 (transglutaminase-2, transglutaminase type 2) (Homo sapiens, UniProt P21980, R263S).
T3 sequence (P21980 1-687 R263S): T1 sequence (P21980 1-687 K202S/K205S) with S202K, S205K, R263S

For assay [4], the target named is T4, TG2 (transglutaminase-2, transglutaminase type 2) (Homo sapiens, UniProt P21980, R262S).
T4 sequence (P21980 1-687 R262S): T1 sequence (P21980 1-687 K202S/K205S) with S202K, S205K, R262S

SMILES strings stand for the structures. Where a chain is given by its changes, count along the chain named.

By IC50 is commonly meant the concentration that inhibits the measured activity by half. Lower therefore signals inhibition by little substance. As to `Nc1nc2c(ncn2[C@@H]2O[C@H](COP(=O)(O)OP(=O)(O)OP(=O)(O)O)[C@@H](O)[C@H]2O)c(=O)[nH]1` [GTP], the IC50 in assay [1] was 145 ± 23 µM; in assay [2], 254 ± 8 µM; in assay [3] it was 79 ± 15 µM; in assay [4], 23 ± 5 µM.

Source of the values: PMC3365763 (The Journal of Biological Chemistry, 2012).
